Experiment: In vitro binding affinity using [3H]LTB4 radioligand binding to leukotriene B4 receptor in human neutrophil binding assay

| Compound | Ki |
| --- | --- |
| CCCc1c(OCCCOc2cc(O)c(OCC)cc2CC)ccc2c1OC(C(=O)O)CC2 (configuration not stated) [7-[3-(4-Ethoxy-2-ethyl-5-hydroxy-phenoxy)-propoxy]-8-propyl-chroman-2-carboxylic acid] | 3.5 nM |
| CCCc1c(OCCCOc2cc(O)c(OC)cc2CC)ccc2c1OC(C(=O)O)CC2 (configuration not stated) [7-[3-(2-Ethyl-5-hydroxy-4-methoxy-phenoxy)-propoxy]-8-propyl-chroman-2-carboxylic acid] | 1.9 nM |
